Source: US4552893A, “Leukotriene antagonists” (SmithKline Beckman Corporation, priority 1983, dated 1985)

Molecular target: T1, leukotriene induced contraction of guinea pig tracheal tissues (LTD4) (Cavia porcellus, UniProt Q2NNR5)
T1 construct: Guinea pig (adult male albino Hartley strain) tracheal spiral strips; from tissue; host or cells: guinea pig (adult male albino Hartley strain) tracheal spiral strips
T1 sequence (Q2NNR5 1-340): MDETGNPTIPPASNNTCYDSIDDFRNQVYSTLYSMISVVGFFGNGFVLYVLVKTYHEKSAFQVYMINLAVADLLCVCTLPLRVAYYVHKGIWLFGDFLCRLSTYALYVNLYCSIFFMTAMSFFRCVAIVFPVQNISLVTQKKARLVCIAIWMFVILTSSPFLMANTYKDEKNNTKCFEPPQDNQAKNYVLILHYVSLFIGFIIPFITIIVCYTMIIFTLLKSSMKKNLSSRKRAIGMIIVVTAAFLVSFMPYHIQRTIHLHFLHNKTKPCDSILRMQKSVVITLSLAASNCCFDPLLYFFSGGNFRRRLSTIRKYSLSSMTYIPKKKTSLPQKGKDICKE
Assay: Inhibition of LTD4-induced contraction of guinea pig tracheal spiral strips in vitro (leukotriene antagonist activity)
Type: cell-based
Conditions: LTD4 cumulative concentration-response, 30 min pretreatment with test compound, meclofenamic acid 1 μM, pA2 = -log KB from EC30 (30% of carbachol contraction)
Experimental: The leukotriene antagonist activity of the compounds of this invention is measured by the ability of the compound to inhibit leukotriene induced contraction of guinea pig tracheal tissues in vitro. The following methodology was employed:
In vitro: Guinea pig (adult male albino Hartley strain) tracheal spiral strips of approximate dimensions 2 to 3 mm cross-sectional width and 3.5 cm length were bathed in modified Krebs buffer in jacketed 10 ml tissue bath and continously aerated with 95% O2 /5% CO2. The tissues were connected via silk suture to force displacement transducers for recording isometric tension. The tissues were equilibrated for 1 hr., pretreated for 15 minutes with meclofenamic acid (1 μM) to remove intrinsic prostaglandin responses, and then pretreated for an additional 30 minutes with either the test compound or vehicle control. A cumulative concentration-response curve for LTD4 on triplicate tissues was generated by successive increases in the bath concentration of the LTD4. […]
Calculations: The averages of the triplicate LTD4 concentration-response curves both in the presence and absence of the test compound were plotted on log graph paper. The concentration of LTD4 needed to elicit 30% of the contraction elicited by carbachol was measured and defined as the EC30. The pA2 value for the test compound was determined by the following equations: [formula] […]

- Kb: 6.31 µM
Compound: CCCCCCCCCCCC/C=C\C(SCCC(=O)O)C(O)CO (stereo not shown) [3-[(2-Carboxyethyl)thio]-4(Z)-heptadecen-1,2-diol]
